Data as given in patent US6203976A, “Methods of preparing compositions comprising chemicals capable of transcriptional modulation” (OSI Pharmaceuticals, Inc., priority 1994, dated 2001).
Read-outs that look alike come from different tables or passages of the source. Starred links: 1 amine or outer side, 2 acyl side, 3 side chain; linkers in the order of their positions; H or OH if unused. Positions of bridges follow the written chain, without caps; N, C: chain ends. Non-standard residues stand in square brackets, D forms with d. Residues, ends and D or L forms follow the SMILES beside them. Chains are numbered I, II in the order given. Actinocin(9to1) = Cc1c2oc3c(C)ccc(C(=O)[*:1])c3nc-2c(C(=O)[*:2])c(N)c1=O; NMeV = CN[C@H](C(=O)O)C(C)C; Sar = CNCC(=O)O

Legend:
[1] = system: H-ras reporter (H21 cells); assay: Luciferase signal half-life after Actinomycin D, H21 cells; format: cell-based; conditions: Actinomycin D 25 microg/ml
Experimental: (§1) When screening for inhibitors rather than inducers of transcription, the half-life of the reporter molecule becomes a crucial parameter in determining the minimal incubation time that would be necessary to allow enough decay of reporter molecules so that the inhibition of their synthesis became visible. The CMV reporter cell line was therefore tested for the time dependency of luciferase activity after treatment of the cells with Actinomycin D, an inhibitor of transcription. This experiment measured the combined half-life of luciferase mRNA and of the luciferase protein and compares the rate of signal decay of the CMV reporter to three other well characterized genes; H-ras, K-ras and c-erbB2.
(§2) Cells derived from clones CM1 (CMV), K2 (K-ras), H21 (H-ras) and N2 (c-erbB2) were seeded into 96-well microtiter plates and incubated overnight. At time 0, Actinomycin D (25 microg/ml) was added. At the times indicated in FIG. 22, cells were washed with PBS and luciferase activity of Actinomycin-treated cells determined as described in Materials and Methods. The signal from the treated cells was compared to the luciferase activity of untreated controls.

[2] = system: neu (c-erbB2) reporter (N2 cells); assay: Luciferase signal half-life after Actinomycin D, N2 cells; format: cell-based, human; conditions: Actinomycin D 25 microg/ml
Excerpt: (§3) 75 micrograms of the pNEU106 plasmid was linearized by a single restriction endonuclease cleavage within the vector backbone and electroporated into HTB30 human breast carcinoma cells. Neomycin resistant clones were isolated and tested for luciferase activity. Clones testing positive for luciferase production were subjected to Southern blot analysis (see below). The best clone (producing the highest signal and carrying a single intact copy of the transfected DNA) was utilized for high throughput screening (designated clone N2).
as §1, with “The CMV reporter cell line was therefore tested for the time dependency of luciferase activity after treatment of the cells with Actinomycin D, an inhibitor of transcription.” left out
as §2, with “At time 0, Actinomycin D (25 microg/ml) was added.” left out, “The signal from the treated cells was compared to the luciferase activity of untreated controls.” left out

CMV reporter (CM1 cells) = assay: Luciferase signal half-life after Actinomycin D, CM1 cells; format: cell-based, human; conditions: Actinomycin D 25 microg/ml
Excerpt: Hep3B hepatocellular carcinoma cells were transfected by electroporation with 75 micrograms of pCM106 which had been linearized by a single ScaI cut within the vector backbone. Neomycin resistant colonies were isolated and tested for luciferase activity. Luciferase positive, neomycin resistant clones were subjected to Southern blot analysis (see below). The best clone, producing the most luciferase activity from a single, correctly integrated vector was selected for use as the CMV reporter cell line in the high throughput screen (this clone was designated CM1).
as §1, with “The CMV reporter cell line was therefore tested for the time dependency of luciferase activity after treatment of the cells with Actinomycin D, an inhibitor of transcription.” left out
as §2, with “At time 0, Actinomycin D (25 microg/ml) was added.” left out, “The signal from the treated cells was compared to the luciferase activity of untreated controls.” left out

[3] = system: K-ras reporter (K2 cells); assay: Luciferase signal half-life after Actinomycin D, K2 cells; format: cell-based, human; conditions: Actinomycin D 25 microg/ml
Excerpt: as §3, with “pKRAS106” for “pNEU106”, “SW480” for “HTB30”, “colon” for “breast”, “K2).” for “N2).”
as §1, with “The CMV reporter cell line was therefore tested for the time dependency of luciferase activity after treatment of the cells with Actinomycin D, an inhibitor of transcription.” left out
as §2, with “At time 0, Actinomycin D (25 microg/ml) was added.” left out, “The signal from the treated cells was compared to the luciferase activity of untreated controls.” left out

MMTV (M10) promoter = assay: High-throughput luciferase reporter assay, MMTV promoter (Screen III); format: cell-based, mouse; conditions: M10 cells, 6 hours; for FOLD INHIBITION RELATIVE TO SOLVENT CONTROL, MMTV: Screen III inhibitors; for FOLD INDUCTION RELATIVE TO SOLVENT CONTROL, MMTV: Screen III activators
[4] = system: human growth hormone (532) promoter; assay: High-throughput luciferase reporter assay, human Growth Hormone promoter (Screen III); format: cell-based; conditions: 532 cells, 6 hours; for FOLD INHIBITION RELATIVE TO SOLVENT CONTROL, hGH: Screen III inhibitors; for FOLD INDUCTION RELATIVE TO SOLVENT CONTROL, hGH: Screen III activators
[5] = system: human G-CSF (G21) promoter; conditions: Screen III inhibitors; G21 cells; 6 hours
[6] = system: human G-CSF (G21) promoter; assay: High-throughput luciferase reporter assay, G-CSF promoter (Screen III); conditions: G21 cells, 6 hours; for FOLD INDUCTION RELATIVE TO SOLVENT CONTROL, GCSF: Screen III activators

Row | Structure (SMILES) | FOLD INHIBITION RELATIVE TO SOLVENT CONTROL, MMTV (MMTV (M10) promoter) | FOLD INHIBITION RELATIVE TO SOLVENT CONTROL, hGH [4] | FOLD INHIBITION RELATIVE TO SOLVENT CONTROL, GCSF [5] | FOLD INDUCTION RELATIVE TO SOLVENT CONTROL, MMTV (MMTV (M10) promoter) | FOLD INDUCTION RELATIVE TO SOLVENT CONTROL, hGH [4] | FOLD INDUCTION RELATIVE TO SOLVENT CONTROL, GCSF [6] | also measured
1 | Cc1c2oc3c(C)ccc(C(=O)N[C@@H]4C(=O)N[C@H](C(C)C)C(=O)N5CCC[C@H]5C(=O)N(C)CC(=O)N(C)[C@@H](C(C)C)C(=O)O[C@@H]4C)c3nc-2c(C(=O)N[C@@H]2C(=O)N[C@H](C(C)C)C(=O)N3CCC[C@H]3C(=O)N(C)CC(=O)N(C)[C@@H](C(C)C)C(=O)O[C@@H]2C)c(N)c1=O [Actinomycin D] (I: T[dV]P[Sar][NMeV] / II: T[dV]P[Sar][NMeV]; ester I:1-I:C, II:1-II:C; linker I:N-II:N via Actinocin(9to1)) | – | – | – | – | – | – | Signal Halflife [1]: 10 h; Signal Halflife [2]: 3 h; Signal Halflife (CMV reporter (CM1 cells)): 6.5 h; Signal Halflife [3]: 6.5 h
2 | O=S(=O)(O)c1ccc2c(N=Nc3ccc(S(=O)(=O)O)c4ccccc34)c(O)c(S(=O)(=O)O)cc2c1 [compound 512] | 0.68 fold | 5.26 fold | 0.81 fold | – | – | – | –
3 | CC1(C)[C@H]2CC[C@]1(C)[C@H](O)C2 [compound 1635] | 0.99 fold | 9.09 fold | 0.71 fold | – | – | – | –
4 | CC1(C)[C@H]2CC[C@]1(C)C(=O)C2 [compound 1720] | 0.66 fold | 4.76 fold | 0.65 fold | – | – | – | –
5 | Cc1n[nH]c(C)c1Br [compound 2009] | 0.64 fold | 0.57 fold | 3.70 fold | – | – | – | –
6 | COc1c(F)cc(Br)cc1[N+](=O)[O-] [compound 2030] | – | – | – | 0.87 fold | 0.67 fold | 5.53 fold | –
7 | O=C(O)c1ccc(Br)o1 [compound 2035] | 0.89 fold | 7.14 fold | – | – | – | – | FOLD INHIBITION RELATIVE TO SOLVENT CONTROL, GCSF ([6]; Screen III inhibitors): 0.57 fold
8 | Nc1nc2c(nc(Br)n2[C@@H]2O[C@H](CO)[C@@H](O)[C@H]2O)c(=O)[nH]1 [compound 2036] | 0.81 fold | 4.34 fold | 0.58 fold | – | – | – | –
9 | CCCCCCCCCCCCCCCCBr [compound 2037] | 0.50 fold | 4.00 fold | 0.51 fold | – | – | – | –
10 | COc1cc2oc(=O)cc(CBr)c2cc1OC [compound 2064] | – | – | – | 2.53 fold | 1.10 fold | 0.82 fold | –
11 | CC(CCl)CBr (stereo not shown) [compound 2096] | – | – | – | 0.89 fold | 0.61 fold | 3.27 fold | –
12 | ClCc1ccc(Cl)cc1 [compound 2129] | – | – | – | 0.95 fold | 0.75 fold | 3.23 fold | –
13 | O=C1CCCCC1Cl (stereo not shown) [compound 2148] | – | – | – | 2.82 fold | 0.92 fold | 0.45 fold | –
14 | O=C(N[C@H](CO)[C@H](O)c1ccc([N+](=O)[O-])cc1)C(Cl)Cl [compound 2191] | – | – | – | 7.32 fold | 0.35 fold | 0.37 fold | –
